Measured values taken from patent US10544152B2, “5-HT2CR agonist analogs” (The Board of Regents of The University of Texas System, priority 2017, dated 2020).
Read-outs that look alike come from different tables or passages of the source.

Key:
[1] = target: T1, 5-HT2CR (Homo sapiens (Human), UniProt P28335); test: Intracellular calcium (Cai++) release assay, FLIPR Calcium 4, U2OS cells stably expressing 5-HT2CR; type: cell-based; details: for Emax: % Cai++ release obtained with 1 μM of WAY163909 (1), U2OS cells expressing human 5-HT2CR; for EC50: Cai++ release, U2OS cell line stably expressing human 5-HT2CR, mean ± SEM, at least three independent experiments
Experimental: The PathHunter® U2OS HTR2C β-Arrestin cell line (5-HT2cR-U2OS; DiscoveRx) stably express the nonedited human 5-HT2CR isoform (h5-HT2CR). The 5-HT2CR-U2OS cells were grown in Assay Complete™ U2OS Medium 31 (DiscoveRx) at 37° C., 5% CO2 and 85% relative humidity according to manufacturer's recommendations utilizing AssayComplete™ Cell Detachment Reagent (DiscoveRx). Cells were passaged at 70-80% confluence and all experiments were conducted using cells in log phase growth.
The ability of the molecules to act as agonists to induce 5-HT2CR-mediated intracellular calcium (Cai^++) release was conducted in an U2OS cell line stably expressing the human 5-HT2CR.
Intracellular calcium (Cai^++) release was monitored using the FLIPR Calcium 4 Assay Kit (Molecular Devices) according to previously published protocols with minor modifications. See, e.g., Shashack, M. J., et al., ACS Chem Neurosci. 2 (11), 640-644 (2011); Seitz, P. K.; Bremer, N. M., et al., BMC Neurosci. 13, 25 (2012).
Cells were plated at 5,000-7,000 cells/well in Assay Complete™ Cell Plating Reagent 16 (DiscoveRx) in black-sided, clear bottomed 96-well tissue culture plates and allowed to adhere overnight. Medium was removed and replaced with 40 μl Hank's balanced salt solution without calcium, magnesium and phenol red (HBSS; Corning) plus 40 μl Calcium 4 dye solution in Buffer B supplemented with 2.5 mM probenecid (Sigma-Aldrich) to inhibit extracellular dye transport. Plates were incubated for 60 min at 37° C. followed by 30 min at room temperature in the dark.
Fluorescence (λex=485 nm, λem=525 nm) was measured using a FlexStation3 (Molecular Devices). Baseline was established for 17 secs before addition of 20 μl vehicle (HBSS without calcium or magnesium) or 5× concentrated compound. […] Maximum peak height was determined using FlexStation software (SoftMax Pro 5.4). After the final readings, cells were fixed in 2% paraformaldehyde overnight.
Peak responses from each well were normalized to total cell mass as determined with crystal violet staining. See e.g., Ding, C. et al., ACS Chem. Neurosci 3 (7), 538-545 (2012). […] Potency of the compounds was determined using the EC50 (concentration of compound required to achieve half-maximal response). The EC50 values were determined using 4-parameter nonlinear regression analysis and calculated from at least three independent experiments, each conducted in triplicate, and are presented as mean±SEM. Ratkowsky, D. A., et al., Biometrics 42, 575-582 (1986).

[2] = target: 5-HT2BR (Homo sapiens (Human), UniProt P41595); test: CEREP radioligand displacement of [125I]-(±)-DOI at 5-HT2BR; details: duplicate, read-out: mean percent inhibition of control specific binding, 5-HT2BR
Experimental: (§1) Compounds were submitted to CEREP to determine receptor selectivity at the 5-HT2 Compounds were tested at a single concentration of 10 μM in duplicate to determine their ability to displace [^125I]-(±)-DOI. The data are presented as mean percent inhibition of control specific binding for compound tested at each receptor subtype (Table 2). Significant inhibition is considered >50%; 25-50% inhibition is indicative of weak to moderate effects.

[3] = target: T1, 5-HT2CR; test: CEREP radioligand displacement of [125I]-(±)-DOI at 5-HT2CR; details: duplicate, read-out: mean percent inhibition of control specific binding, 5-HT2CR
Experimental: as §1

[4] = target: 5-HT2AR (Homo sapiens (Human), UniProt P28223); test: CEREP radioligand displacement of [125I]-(±)-DOI at 5-HT2AR; details: read-out: mean percent inhibition of control specific binding, 5-HT2AR
Experimental: as §1

Sequence of 5-HT2AR (P28223 whole entry): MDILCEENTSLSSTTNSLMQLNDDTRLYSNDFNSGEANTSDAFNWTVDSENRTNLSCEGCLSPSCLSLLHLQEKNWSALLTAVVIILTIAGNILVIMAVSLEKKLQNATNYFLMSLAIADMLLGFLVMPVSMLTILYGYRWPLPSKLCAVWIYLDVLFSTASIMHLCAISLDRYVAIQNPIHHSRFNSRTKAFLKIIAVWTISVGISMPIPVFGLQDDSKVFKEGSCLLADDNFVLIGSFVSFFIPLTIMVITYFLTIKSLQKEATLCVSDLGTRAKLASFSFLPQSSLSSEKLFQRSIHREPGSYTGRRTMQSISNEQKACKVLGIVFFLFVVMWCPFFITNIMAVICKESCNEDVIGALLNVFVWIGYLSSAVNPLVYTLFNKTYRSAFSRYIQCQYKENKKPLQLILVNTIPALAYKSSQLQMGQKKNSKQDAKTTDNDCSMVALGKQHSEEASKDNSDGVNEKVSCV
Sequence of 5-HT2BR (P41595 whole entry): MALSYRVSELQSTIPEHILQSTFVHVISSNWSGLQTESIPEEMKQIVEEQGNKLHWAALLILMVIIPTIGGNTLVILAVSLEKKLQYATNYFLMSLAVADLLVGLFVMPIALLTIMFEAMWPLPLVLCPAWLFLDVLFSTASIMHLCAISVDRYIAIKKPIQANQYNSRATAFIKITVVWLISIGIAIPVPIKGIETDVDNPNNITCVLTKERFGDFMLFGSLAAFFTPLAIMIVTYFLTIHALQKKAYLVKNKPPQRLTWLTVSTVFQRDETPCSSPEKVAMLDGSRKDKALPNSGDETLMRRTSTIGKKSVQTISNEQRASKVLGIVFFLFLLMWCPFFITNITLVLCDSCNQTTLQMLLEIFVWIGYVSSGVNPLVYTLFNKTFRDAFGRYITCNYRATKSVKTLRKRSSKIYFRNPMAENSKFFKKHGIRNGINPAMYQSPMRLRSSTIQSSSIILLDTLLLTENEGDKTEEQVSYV
T1 sequence (P28335 33-458): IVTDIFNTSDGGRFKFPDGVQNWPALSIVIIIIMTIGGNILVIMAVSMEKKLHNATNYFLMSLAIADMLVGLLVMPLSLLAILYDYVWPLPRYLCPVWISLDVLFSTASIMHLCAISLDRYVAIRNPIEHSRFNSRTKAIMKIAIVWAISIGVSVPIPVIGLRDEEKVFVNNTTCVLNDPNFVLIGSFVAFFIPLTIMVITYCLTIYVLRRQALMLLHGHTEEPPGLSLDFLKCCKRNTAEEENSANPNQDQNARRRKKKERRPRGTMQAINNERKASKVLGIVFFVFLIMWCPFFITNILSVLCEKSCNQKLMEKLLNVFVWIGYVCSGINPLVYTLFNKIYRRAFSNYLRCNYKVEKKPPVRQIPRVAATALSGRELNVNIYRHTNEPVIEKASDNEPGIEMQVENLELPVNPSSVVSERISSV

| Compound | Emax [1] | EC50 [1] | inhibition at 10 µM [2] | inhibition at 10 µM [3] | inhibition at 10 µM [4] | inhibition at 10 µM ([4]; 10 μM, duplicate, displacement of [125I]-(±)-DOI) |
| --- | --- | --- | --- | --- | --- | --- |
| c1cc2c3c(c1)[C@H]1CCC[C@H]1N3CCNC2 (racemic) [Compound 1, (7bR,10aR)-1,2,3,4,8,9,10,10a-octahydro-7bH-cyclopenta-[b][1,4]diazepino[6,7,1hi]indole, reference compound] | 100% | – | – | – | – | – |
| COc1ccc2c3c1[C@H]1CCC[C@H]1N3CCNC2 (racemic) [Compound 36, 7-methoxy-2,3,4,7b,8,9,10,10a-octahydro-1H-cyclopenta[b][1,4]diazepino[6,7,1-hi]indole] | 105 ± 6.1% | 1.2 ± 0.3 nM | 98.6% | 100% | 86.5% | – |
| C#CCOCCOCCOc1ccc2c3c1C1CCCC1N3CCNC2 (racemic) [Compound 45, 7-(2-(2-(prop-2-ynyloxy)ethoxy)ethoxy)-2,3,4,7b,8,9,10,10a-octahydro-1H-cyclopenta[b][1,4]diazepino[6,7,1-hi]indole] | 99.3 ± 2.2% | 218 ± 53.1 nM | 67.7% | 99.6% | – | 67.1% |
| COc1ccc2c3c1[C@@H]1CCC[C@@H]1N3CCNC2 (stereo in doubt) [Compound 37, 7-methoxy-2,3,4,7b,8,9,10,10a-octahydro-1H-cyclopenta[b][1,4]diazepino[6,7,1-hi]indole] | 97.6 ± 4.7% | 72.4 ± 14.5 nM | 4.8% | 91.5% | 22.8% | – |

More lines, main results first:

| Emax [1] | EC50 [1] | Compound | inhibition at 10 µM [2] | inhibition at 10 µM [3] | inhibition at 10 µM [4] | inhibition at 10 µM ([4]; 10 μM, duplicate, displacement of [125I]-(±)-DOI) |
| --- | --- | --- | --- | --- | --- | --- |
| 95.9 ± 1.5% | 1480 ± 238 nM | COc1cc2c3c(c1)[C@H]1CCC[C@H]1N3CCNC2 (racemic) [Compound 17] | – | – | – | – |
| 103 ± 4.6% | 2.4 ± 0.4 nM | COc1ccc2c3c1C1CCCC1N3CCNC2 (racemic) [Compound 18, 7-methoxy-2,3,4,7b,8,9,10,10a-octahydro-1H-cyclopenta[b][1,4]diazepino[6,7,1-hi]indole] | – | – | – | – |
| 95.9 ± 2.6% | 119 ± 11.5 nM | Oc1ccc2c3c1[C@H]1CCC[C@H]1N3CCNC2 (racemic) [Compound 35] | – | – | – | – |
| 97.2 ± 2.3% | 51.9 ± 9.6 nM | C#CCOCCOc1ccc2c3c1C1CCCC1N3CCNC2 (racemic) [Compound 44, 7-(2-(Prop-2-ynyloxy)ethoxy)-2,3,4,7b,8,9,10,10a-octahydro-1H-cyclopenta[b][1,4]diazepino[6,7,1-hi]indole] | – | – | – | – |
| 100% | 0.33 ± 0.1 nM | OCCc1c[nH]c2ccc(O)cc12 [Compound 27, reference compound] | – | – | – | – |
| 95.2 ± 2.3% | 575 ± 112 nM | C#CCOCCOCCOCCOc1ccc2c3c1C1CCCC1N3CCNC2 (stereo not shown) [Compound 46, 7-(2-(2-(2-(prop-2-ynyloxy)ethoxy)ethoxy)ethoxy)-2,3,4,7b,8,9,10,10a-octahydro-1H-cyclopenta[b][1,4]diazepino[6,7,1-hi]indole] | – | – | – | – |
